Results taken from patent US4407810A, “Thiazol-2-yl-oxamic acid derivatives, and therapeutic agents containing these compounds” (BASF Aktiengesellschaft, priority 1980, dated 1983).

Experiments:
[1] = tested on: passive cutaneous anaphylaxis (PCA); experiment: anti-allergic action, passive cutaneous anaphylaxis (PCA) model in rats; format: in vivo; conditions: for ED50: Rattus norvegicus, dose which reduces diameter of color patch by 50% vs non-medicated controls, read-out: Inhibition of PCA in rats (oral), ED 50%; for times more active than Comparative Compound V1 / R.A. (relative activity): PCA in rats; for times more active than Comparative Compound V1: after oral administration; for R.A. (relative activity): relative to V1 (=1)
Method: The anti-allergic action was tested on rats, using the passive cutaneous anaphylaxis (PCA) model.
Narcotized male rats (100-140 g) are sensitized by intradermal injection (into the shaved dorsal skin) of 0.1 ml of an ovalbumin antiserum. After a sensitization period of about 48 hours, the treatment (intraperitoneal or oral administration) is carried out with various dosages (10 animals/dose)of the test substances. 15-20 minutes after treatment, an antigen/Evans blue mixture (10 mg/kg of ovalbumin in 2% strength Evans blue solution) is intravenously injected into the test animals. 30 minutes later, the animals are sacrificed, the dorsal skin is removed and the diameter of the circular blue coloration is measured on the inner surface. The size of the color patches of untreated control animals can be standardized. Anti-allergic substances reduce the diameter of the color patch by an amount dependent on the dose. The ED 50% is quoted as the dose which reduces the diameter of the color patch by 50% relative to that of non-medicated control animals.

[2] = acute toxicity, rats, oral; conditions: rat, in vivo, Sprague-Dawley rats, 14 days post-observation, read-out: LD 50, rats oral
Method: (§1) In addition to the anti-allergic action, the acute toxicity was determined for intraperitoneal administration, using groups of 2 NMRI mice, each weighing 20-26 g, and for oral administration, using groups of 2 Sprague-Dawley rats, each weighing 120-150 g. The LD 50 was determined on groups of 10 NMRI mice, each weighing 20-26 g, after intraperitoneal administration. The post-observation period was 14 days.

[3] = acute toxicity (LD 50), mice, intraperitoneal; conditions: mouse, in vivo, ip, NMRI mice, 14 days post-observation
Method: as §1

| SMILES | ED50 ([1]; rats, oral) | activity in PCA (in words) ([1]; rats, oral, up to 100 mg/kg) | LD50 at 336 h [2] | times more active than Comparative Compound V1 [1] | R.A. (relative activity) ([1]; oral) | LD50 at 336 h [3] |
| --- | --- | --- | --- | --- | --- | --- |
| O=C(O)c1cc(=O)c2c(OCC(O)COc3cccc4oc(C(=O)O)cc(=O)c34)cccc2o1 [Cromolyne, reference compound] | 100 mg/kg | inactive | > 2150 mg/kg |  |  |  |
| COCCOC(=O)C(=O)Nc1nc(-c2ccccc2)cs1 [Example 7, 2-Methoxyethyl N-(4-phenyl-thiazol-2-yl)-oxamate] | 2.24 mg/kg |  | > 2150 mg/kg | 3.87 times | 3.87 | 655 mg/kg |
| CCOCCOC(=O)C(=O)Nc1nc(-c2ccccc2)cs1 [Example 9, 2-Ethoxyethyl N-(4-phenyl-thiazol-2-yl)-oxamate] | 0.0382 mg/kg |  | > 2150 mg/kg | 227 times | 227 | 956 mg/kg |
| COCCOCCOC(=O)C(=O)Nc1nc(-c2ccccc2)cs1 [Example 11, 2-(ω-Methoxyethyleneoxy)-ethyl N-(4-phenyl-thiazol-2-yl)-oxamate] | 2.16 mg/kg |  | > 2150 mg/kg |  | 4.01 | 705 mg/kg |
| CCOCCOC(=O)C(=O)Nc1nc(-c2ccc(OC)cc2)cs1 [Example 14, 2-Ethoxyethyl N-[4-(4-methoxyphenyl)-thiazol-2-yl]-oxamate] | 0.619 mg/kg |  |  |  | 14.0 | ~1000 mg/kg |
| CCOC(=O)C(=O)Nc1nc(-c2ccccc2)cs1 [Example V1, ethyl N-(4-phenyl-thiazol-2-yl)-oxamate, reference compound] | 8.67 mg/kg |  | > 2150 mg/kg |  | 1 | ~681 mg/kg |
